Experiments:
[1] = test system: NCI-H1437 xenograft tumors; assay: In vivo combination study (NCI-H1437 model), Example 2; design: species or system female nu/nu mice; details: MRTX1719 and ABT-263 100 mg/kg PO QD, A-1331852 25 mg/kg PO QD, alone or combined
Text: (§1) Immunodeficient female nu/nu mice were implanted with 5×10^6 LU99 cancer cells in 50% Matrigel. Tumor volume measurements were collected using calipers and determined utilizing the formula 0.5×L×W^2 in which L refers to length and W refers to width of each tumor. When tumors reached approximately 125-150 mm^3, animals were randomized to receive A) vehicle, B) a PRMT5 inhibitor, C) navitoclax (ABT-263), D) venetoclax (ABT-199), E) A-1331852, F) the PRMT5 inhibitor and navitoclax, F) the PRMT5 inhibitor and venetoclax, or G) the PRMT5 inhibitor and A-1331852 all administered orally (PO) with the indicated dose and schedule for 20-34 days. Tumor volume was measured twice a week (n=5/treatment group). Average tumor volume and standard error of the mean was calculated and plotted at each study day using GraphPad Prism.
Example 2 was carried out using NCI-H1437 cell line derived xenografts according to the in vivo study procedure described above in Example 1.
(§2) The PRMT5 inhibitor was MRTX1719 administered at 100 mg/kg once a day (QD). MRTX1719 is (2M)-2-(4-(4-(aminomethyl)-1-oxo-1,2-dihydrophthalazin-6-yl)-1-methyl-1H-pyrazol-5-yl)-4-chloro-6-cyclopropoxy-3-fluorobenzonitrile, disclosed as Example 16-8 at p. 307 of the international patent publication No. WO 2021/050915 A1, published 18 Mar. 2021, incorporated by reference in its entirety. The BCL-2 family inhibitor, ABT-263 (navitoclax), was administered at 100 mg/kg once a day (QD) and supplied by Selleck Chemicals (Houston, TX). The BCL-2 family inhibitor A-1331852 was administered at 25 mg/kg once a day (QD) and synthesized at Wuxi AppTec (Wuhan, China).

[2] = test system: SW1573 xenograft tumors; assay: In vivo combination study (SW1573 model), Example 3; design: species or system female nu/nu mice; details: MRTX1719 and ABT-263 100 mg/kg PO QD, A-1331852 25 mg/kg PO QD, alone or combined
Text: as §1
Example 3 was carried out in SW1573 cell line derived xenografts according to the in vivo study procedure described above in Example 1.
as §2

[3] = test system: NCI-H1650 xenograft tumors; assay: In vivo combination study (NCI-H1650 model), Example 5; design: species or system female nu/nu mice; details: MRTX1719 and ABT-263 100 mg/kg PO QD, A-1331852 25 mg/kg PO BID, alone or combined
Text: as §1
Example 5 was carried out using NCI-H1650 cell line derived xenografts according to the in vivo study procedure described above in Example 1.
The PRMT5 inhibitor was MRTX1719 administered at 100 mg/kg once a day (QD). MRTX1719 is (2M)-2-(4-(4-(aminomethyl)-1-oxo-1,2-dihydrophthalazin-6-yl)-1-methyl-1H-pyrazol-5-yl)-4-chloro-6-cyclopropoxy-3-fluorobenzonitrile, disclosed as Example 16-8 at p. 307 of the international patent publication No. WO 2021/050915 A1, published 18 Mar. 2021, incorporated by reference in its entirety. The BCL-2 family inhibitor, ABT-263 (navitoclax), was administered at 100 mg/kg once a day (QD) and supplied by Selleck Chemicals (Houston, TX). The BCL-2 family inhibitor A-1331852 was administered at 25 mg/kg twice a day (BID) and synthesized at Wuxi AppTec (Wuhan, China).

[4] = test system: H2052; assay: In vitro combination synergy, H2052 (Cell-Titer Glo); type: cell-based; details: combined with exemplary PRMT5 inhibitor, 120 h, sum of Loewe, Bliss, HSA and ZIP scores
Description: (§3) A panel of MTAP-deleted cancer cell lines was assembled to determine whether combining BCL-2 family inhibitors with exemplary PRMT5 inhibitors disclosed herein results in synergistic activity.
(§4) [Assays for determining the synergy score for the pairwise combinations for each cell line were performed in triplicate. 384 or 96-well plates plus additional wells of a separate 384 or 96-well control plate for determining baseline luminescence were seeded with cells of a particular MTAP-deleted cell line in a suitable growth medium for that cell line, e.g., RPMI 1640 medium supplemented with 10% FBS and any cell line specific reagents needed for growth. The plates were incubated overnight at 37 °C in a 5% CO2 atmosphere.
(§5) To each of the designated baseline wells, Cell-Titer Glo reagent (CTG; Promega Corporation) was added to each well and the plates were incubated for 20 min shaking at room temperature. Baseline luminescence was quantitated using a BMG ClarioStar multimode plate reader according to the manufacturer's instructions.
(§6) A series of 1000× drug dilutions in 100% DMSO was prepared that includes a 9-point single agent 3-fold dilution of the exemplary PRMT5 inhibitor (of the type described in WO2021/050915) with a top dose of 3000 nM (and a 6-point single agent 5-fold dilution of the BCL-2 family inhibitor with a top dose of 3000 nM as reference standards.
(§7) A 10× intermediate dosing plate was prepared in serum free medium that contains arrayed single agent dilutions of exemplary PRMT5 inhibitor (of the type described in WO2021/050915) and or the BCL-2 family inhibitor. In addition, a matrix of 54 dilution combinations of exemplary PRMT5 inhibitor (of the type described in WO2021/050915) and the BCL-2 family inhibitor was prepared as test samples.
(§8) To each corresponding well of the 384-well plates seeded with the appropriate cell line above, 10× single agent and the 54 combinations of the dose matrix was added and the plates were incubated for 120 hours at 37 °C in 5% CO2 atmosphere. Cell-Titer Glo reagent (CTG) was added to each test well, the plates were incubated for 20 min shaking at room temperature, and luminescence was quantitated using a BMG ClarioStar multimode plate reader according to the manufacturer's instructions. To normalize test samples, the determined baseline luminescence was subtracted from each test sample prior to analysis and mean values are calculated from replicate samples.
(§9) The output of the data from each mathematical model is the assignment of a relative synergy score. The data reported in Table 6 are the aggregate sum of the Loewe additivity, Bliss independence, Highest Single Agent and ZIP synergy scores (“Composite Synergy Score”).

[5] = test system: Mero84; assay: In vitro combination synergy, Mero84 (Cell-Titer Glo); type: cell-based; details: combined with exemplary PRMT5 inhibitor, 120 h, sum of Loewe, Bliss, HSA and ZIP scores
Description: as §3, §4, §5, §6, §7, §8, §9

Cc1c(-c2ccc(N3CCc4cccc(C(=O)Nc5nc6ccccc6s5)c4C3)nc2C(=O)O)cnn1CC12CC3CC(CC(C3)C1)C2 [A-1331852]
Average Tumor Volume ([1]; day 4): 171 mm^3 | Average Tumor Volume ([1]; day 7): 191 mm^3 | Average Tumor Volume ([1]; day 11): 248 mm^3 | Average Tumor Volume ([1]; day 14): 300 mm^3 | Average Tumor Volume ([1]; day 18): 332 mm^3 | Average Tumor Volume ([1]; day 21): 376 mm^3 | Average Tumor Volume ([1]; day 25): 467 mm^3 | Average Tumor Volume ([1]; day 28): 564 mm^3 | Average Tumor Volume ([1]; day 34): 683 mm^3 | Average Tumor Volume ([1]; day −1): 139 mm^3 | Average Tumor Volume ([2]; day 3): 209 mm^3 | Average Tumor Volume ([2]; day 6): 250 mm^3 | Average Tumor Volume ([2]; day 10): 271 mm^3 | Average Tumor Volume ([2]; day 13): 305 mm^3 | Average Tumor Volume ([2]; day 17): 421 mm^3 | Average Tumor Volume ([2]; day 20): 456 mm^3 | Average Tumor Volume ([2]; day 26): 609 mm^3 | Average Tumor Volume ([2]; day −1): 125 mm^3 | Average Tumor Volume ([3]; day 0): 143 mm^3 | Average Tumor Volume ([3]; day 5): 163 mm^3 | Average Tumor Volume ([3]; day 8): 189 mm^3 | Average Tumor Volume ([3]; day 13): 255 mm^3 | Average Tumor Volume ([3]; day 15): 291 mm^3 | Average Tumor Volume ([3]; day 19): 347 mm^3 | Average Tumor Volume ([3]; day 22): 366 mm^3 | Composite Synergy Score [4]: 12 | Composite Synergy Score [5]: 0
